# Earlier results, collected in US20200224165A1, “METHODS AND COMPOSITIONS FOR REJUVENATION” (priority 2016, published 2020).
# Conditions: without irradiation and chemotherapy
compound,measurement,value
c1cc(CN2CCCNCCNCCCNCC2)ccc1CN1CCCNCCNCCCNCC1 [AMD3100],effectiveness as conditioning for HSCT,not to be sufficiently effective
